Biological target: Adenylate kinase isoenzyme 1 (Homo sapiens) (UniProt P00568)
Experiment: ligand-induced stabilization of human AK1 – biophysical, DSF, SYPRO orange (AID 379)
Conditions: purified AK1, DSF SYPRO orange thermal shift; at 5 µM; protein 1 µM; buffer 10 mM HEPES; stronger effect = higher value

Adenylate kinase isoenzyme 1 (Homo sapiens), sequence (P00568 whole entry, looked up): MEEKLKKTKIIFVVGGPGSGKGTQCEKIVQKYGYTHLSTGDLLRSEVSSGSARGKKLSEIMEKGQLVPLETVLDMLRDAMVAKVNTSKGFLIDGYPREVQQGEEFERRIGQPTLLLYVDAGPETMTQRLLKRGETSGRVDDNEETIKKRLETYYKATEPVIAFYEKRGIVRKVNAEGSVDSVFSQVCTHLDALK

- Tm shift: 15.4 Celsius
SMILES: Nc1ncnc2c1ncn2[C@@H]1O[C@H](COP(=O)(O)OP(=O)(O)OP(=O)(O)OP(=O)(O)OP(=O)(O)OC[C@H]2O[C@@H](n3cnc4c(N)ncnc43)[C@H](O)[C@@H]2O)[C@@H](O)[C@H]1O

Reference: PubChem BioAssay AID379
